The values below come from US10898434B2, “Single-walled carbon nanotube-assisted antibiotic delivery and imaging techniques” (Texas Christian University, priority 2018, dated 2021).

Common to all, as to assay type: cell-based, Staphylococcus epidermidis
The test system of test [1] is S. epidermidis. Briefly: Turbidity assay (absorption at 600 nm). The settings on record: serial dilution, 24 h at 37° C. As for the experimental part:
A serial dilution (using the factor of 2) of antibacterial solutions was conducted in 12-well plates starting with 200 μL of antibacterial solution was placed in first well. 850 μl of broth and 50 μl of bacterial broth were added to each well plate. The concentrations tested for doxycycline were 1, 0.5, 0.25, 0.125 and 0 mg/mL. The concentrations tested for methicillin are 1.25, 0.625,0.313, […] and 0 mg/mL. Plates were that incubated at 37° C. for 24 h. The solutions were transferred to cuvettes, and their turbidity is measured using a Cary 500 spectrophotometer with the broth used as a baseline. Two wells were prepared for each concentration.

The subject of test [2] is S. epidermidis. Briefly: Disk diffusion (zone inhibition) assay. As to conditions: 2 and 4 mg doses; compared to non-treatment control; 24 h at 37° C. As for the experimental part: S. epidermidis broth of McFarland 0.5 standard (absorption of 0.08 to 0.1) was created using Mueller Hilton Broth. This standard stabilized the cell count at an approximate 1×10^8 CFU/mL Dilution was plated within 15 minutes of standardization. Following the proper aseptic techniques, 0.2 mL of bacterial broth was placed in the center of prepared agar dish. A sterile bacteria spreader was used to evenly spread the bacteria throughout the plate to create a lawn.
Two different dosages of the antibacterial solutions were tested to increase the breadth and reliability of data. […] Petri dishes are incubated for 24 h at 37° C., then the zones of inhibition were measured with the inclusion of disk diameter in the measurements.
The statistical analysis performed in this work confirm the significance of the observed results for diffusion discs performed at different amounts of SWCNT/antibiotic complex loaded onto discs. […] When the p-value of the analysis is lower than the confidence level chosen, the hypothesis is proven false and a significant difference and variation is detected.
The dataset is analyzed using a comparison of means function by assigning a mean of the control group and comparing it to the means of each of the treatment groups. […]

Test [3] deals with S. epidermidis. Briefly: Colony count (colony formation) assay. The settings on record: 100 μl stock solution, 24 h at 37° C. The procedure: Using S. epidermidis broth (McFarland 0.5 standard), 100 μl was placed in the center of the agar plate. 100 μl of the respective antibacterial stock solution is added to the center. Bacteria was spread through the Petri dish and the plates were further incubated for 24 h at 37° C. Pictures of the plates were uploaded onto the OpenCFU software to count the number of colonies grown on the plate. Two plates were prepared for each antibacterial treatment with corresponding controls.

As to `COc1cccc(OC)c1C(=O)N[C@@H]1C(=O)N2[C@@H]1SC(C)(C)[C@@H]2C(=O)O` [methicillin], the “turbidity of bacterial media (absorption at 600 nm)” value in the test with S. epidermidis [1] is reported as “some bacterial inhibition”. Moreover, the “antibacterial effect (zone of inhibition) of antibiotic alone” value with S. epidermidis [2] is listed as “no antibiotic activity”. Also, the “colony count (in words)” value in the test on S. epidermidis [3] was “complete lack of inhibition response”.
